Laboratory results from US11415579B2, “Assay for measuring a rate of reaction between a target and a ligand candidate” (Imperial College Innovations Ltd., priority 2016, dated 2022).

Assays:
Cdk2(T182C) (C177A) = molecular target: T1, Cdk2(T182C) (C177A) (Homo sapiens, UniProt P24941, C177A/T182C); assay: Kinetic thiol consumption assay with Cdk2 mutant T182C; type: binding; design: key to Rate enhancement, Cdk2 T182C: rate constant with Cdk2 ÷ rate constant with model thiol (fold); conditions: additional mutation C177A; for Rate constant with Cdk2 T182C: Protein: Cdk2, cysteine position T182C, in h^-1
T1 construct: poly-histidine; made in house; host or cells: E. coli
Procedure, shortened: (§1)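 Thiol consumption was monitored kinetically using 5 μM Cdk2 (C177A plus one introduced cysteine) in degassed phosphate buffer at pH 8 with TCEP beads. Plates were kept 1 h at room temperature before fluorescence reading, and rate constants came from exponential decay fitting.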

Cdk2(S276C) (C177A) = molecular target: T2, Cdk2(S276C) (C177A) (Homo sapiens, UniProt P24941, C177A/S276C); assay: Kinetic thiol consumption assay with Cdk2 mutant S276C; type: binding; design: key to Rate enhancement, Cdk2 S276C: rate constant with Cdk2 ÷ rate constant with model thiol (fold); conditions: additional mutation C177A; for Rate constant with Cdk2 S276C: Protein: Cdk2, cysteine position S276C, in h^-1
T2 construct: poly-histidine; made in house; host or cells: E. coli
Procedure, shortened: as §1

Cdk2[C177A, F80C, K278C] = molecular target: T3, Cdk2[C177A, F80C, K278C] (Homo sapiens, UniProt P24941, C177A/F80C/K278C); assay: Kinetic thiol consumption assay with mutant Cdk2 as model thiol; type: binding; design: unit not given here; conditions: 500 μM ligand, 5 μM thiol, phosphate buffer pH 8
T3 construct: poly-histidine; made in house; host or cells: E. coli
Experimental: A library of 120 acrylamides was screened against a) human cyclin-dependent kinase 2 (Cdk2, which contains one surface exposed cysteine residue—C177), prepared by cloning cDNA into the pRSETA bacterial expression vector to generate a poly-histidine tagged Cdk2 fusion that was purified from E. coli using standard techniques, and b) a model thiol (specific details are given below). The structures of these 120 acrylamides are set out in Table 1, above.
To wells containing 150 μL thiol (Cdk2 or model thiol) (5 μM) in degassed phosphate buffer (pH 8) was added immobilized TCEP beads (2% v/v).
After incubation of the fluorescence plates for 1 hour at room temperature, fluorescence measurements (excitation/emission of 380/470 nm) were taken on a PerkinElmer EnVision multilabel plate reader and processed with EnVision Workstation version 1.12.
Fluorescence measurements were normalized against a DMSO/thiol only control and plotted against time.
Rate constants were calculated using GraphPad software Prism version 6 by fitting a first order exponential decay to the data. The rate constant for each acrylamide with Cdk2 was divided by the rate constant for that fragment with the model thiol to provide the rate enhancement for each ligand candidate.
The model thiol used in Example 2 is a mutant form of human Cdk2 (C177A, F80C, K278C) which contains two engineered surface exposed cysteine residues. Mutations were introduced by site-directed mutagenesis and the resulting cDNA was cloned into the pRSETA bacterial expression vector to generate a poly-histidine tagged Cdk2 fusion that was purified from E. coli using standard techniques.

Cdk2(S181C) (C177A) = molecular target: T4, Cdk2(S181C) (C177A) (Homo sapiens, UniProt P24941, C177A/S181C); assay: Kinetic thiol consumption assay with Cdk2 mutant S181C; type: binding; design: key to Rate enhancement, Cdk2 S181C: rate constant with Cdk2 ÷ rate constant with model thiol (fold); conditions: additional mutation C177A; for Rate constant with Cdk2 S181C: Protein: Cdk2, cysteine position S181C, in h^-1
T4 construct: poly-histidine; made in house; host or cells: E. coli
Procedure, shortened: as §1

[1] = molecular target: T5, human cyclin-dependent kinase 2 (Cdk2) (Homo sapiens, UniProt P24941); assay: Kinetic thiol consumption assay with wild type Cdk2 (C177); type: binding; design: key to Rate enhancement, Cdk2 WT: k(Cdk2) divided by k(model thiol); Rate constant with Cdk2 (k(Cdk2)): unit not given here; conditions: for Rate constant with Cdk2 (k(Cdk2)): 500 μM ligand, 5 μM thiol, phosphate buffer pH 8; for Rate enhancement, Cdk2 WT: no additional mutations; for Rate constant with Cdk2 WT: Protein: Cdk2, cysteine position WT, in h^-1; for k(Cdk2)/k(Cdk2_mut) rate enhancement: model thiol Cdk2[C177A, F80C, K278C]; for k(Cdk2)/k(GSH) rate enhancement: model thiol glutathione
T5 construct: poly-histidine; made in house; host or cells: E. coli
Procedure, shortened: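 Thiol 5 μM (Cdk2 or model thiol), degassed phosphate buffer pH 8, TCEP beads 2% v/v. Plates incubated 1 h RT, ex/em 380/470 nm. First-order decay fit → rate constant; ratio Cdk2/model thiol = rate enhancement.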

[2] = Kinetic thiol consumption assay with model thiol glutathione; type: physicochemical; design: Rate constant with glutathione (k(GSH)): unit not given here; conditions: for Rate constant with glutathione (k(GSH)): 500 μM ligand, 5 μM thiol, phosphate buffer pH 8; for Rate constant with Glutathione: Protein: Glutathione, cysteine position NA, in h-1
Procedure, shortened: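 Rate constants for acrylamide reaction with 5 μM glutathione come from first-order exponential fits of normalized fluorescence decay (ex 380, em 470 nm). Reactions run in degassed phosphate buffer at pH 8 containing TCEP beads, room temperature.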

Cdk2(C177A, F80C) = molecular target: T6, Cdk2(C177A, F80C) (Homo sapiens, UniProt P24941, C177A/F80C); assay: Kinetic thiol consumption assay with Cdk2 mutant F80C, incl. kobs versus concentration (Kd, k2); type: binding; design: key to Rate enhancement, Cdk2 F80C: Cdk2 rate constant divided by model-thiol rate constant; conditions: additional mutation C177A; for Rate constant with Cdk2 F80C: Protein: Cdk2, cysteine position F80C, in h^-1
T6 construct: poly-histidine; made in house; host or cells: E. coli
Procedure, shortened: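 His-tagged Cdk2(C177A/F80C) from E. coli or model thiol, 5 μM in degassed phosphate buffer pH 8 with TCEP beads, reacted with acrylamide ligands; fluorescence (ex/em 380/470 nm) normalized to DMSO control and fitted to first-order decay for kobs. Kd and k2 obtained from hyperbolic fit of kobs versus ligand concentration.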

Cdk2(H71C) (C177A) = molecular target: T7, Cdk2(H71C) (C177A) (Homo sapiens, UniProt P24941, C177A/H71C); assay: Kinetic thiol consumption assay with Cdk2 mutant H71C; type: binding; design: key to Rate enhancement, Cdk2 H71C: rate constant with Cdk2 ÷ rate constant with model thiol (fold); conditions: additional mutation C177A; for Rate constant with Cdk2 H71C: Protein: Cdk2, cysteine position H71C, in h^-1
T7 construct: poly-histidine; made in house; host or cells: E. coli
Procedure, shortened: as §1

Cdk2(N272C) (C177A) = molecular target: T8, Cdk2(N272C) (C177A) (Homo sapiens, UniProt P24941, C177A/N272C); assay: Kinetic thiol consumption assay with Cdk2 mutant N272C; type: binding; design: key to Rate enhancement, Cdk2 N272: rate constant with Cdk2 ÷ rate constant with model thiol (fold); conditions: for Rate enhancement, Cdk2 N272: Cdk2 N272, additional mutation C177A; for Rate constant with Cdk2 N272C: Protein: Cdk2, cysteine position N272C, additional mutation C177A, in h^-1
T8 construct: poly-histidine; made in house; host or cells: E. coli
Procedure, shortened: as §1

Cdk2(R122C) (C177A) = molecular target: T9, Cdk2(R122C) (C177A) (Homo sapiens, UniProt P24941, C177A/R122C); assay: Kinetic thiol consumption assay with Cdk2 mutant R122C; type: binding; design: key to Rate enhancement, Cdk2 R122C: rate constant with Cdk2 ÷ rate constant with model thiol (fold); conditions: additional mutation C177A; for Rate constant with Cdk2 R122C: Protein: Cdk2, cysteine position R122C, in h-1
T9 construct: poly-histidine; made in house; host or cells: E. coli
Procedure, shortened: as §1

SMILES | Rate enhancement, Cdk2 T182C (Cdk2(T182C) (C177A)) | Rate constant with Cdk2 T182C (Cdk2(T182C) (C177A)) | Rate enhancement, Cdk2 S276C (Cdk2(S276C) (C177A)) | Rate constant with Cdk2 S276C (Cdk2(S276C) (C177A)) | Rate constant with Cdk2[C177A, F80C, K278C] (k(Cdk2_mut)) (Cdk2[C177A, F80C, K278C]) | Rate enhancement, Cdk2 S181C (Cdk2(S181C) (C177A)) | Rate constant with Cdk2 S181C (Cdk2(S181C) (C177A)) | Rate constant with Cdk2 (k(Cdk2)) [1] | Rate enhancement, Cdk2 WT [1] | Rate constant with Cdk2 WT [1] | k(Cdk2)/k(Cdk2_mut) rate enhancement [1] | k(Cdk2)/k(GSH) rate enhancement [1] | Rate constant with glutathione (k(GSH)) [2] | Rate constant with Glutathione [2] | Rate enhancement, Cdk2 F80C (Cdk2(C177A, F80C)) | Rate constant with Cdk2 F80C (Cdk2(C177A, F80C)) | Rate enhancement, Cdk2 H71C (Cdk2(H71C) (C177A)) | Rate enhancement, Cdk2 N272 (Cdk2(N272C) (C177A)) | Rate constant with Cdk2 N272C (Cdk2(N272C) (C177A)) | Rate enhancement, Cdk2 R122C (Cdk2(R122C) (C177A)) | also measured
C=CC(=O)NCC1CCCN1S(=O)(=O)c1ccc(C(=O)O)cc1 (stereo not drawn) [BN122] | 2.502 | 0.01499 | 0.1643 | 0.0009842 | 0.00117 | 0.9743 | 0.005838 | 0.00219 | 0.3657 | 0.002191 | 1.879 | 0.7753 | 0.00283 | 0.005992 | 0.3899 | 0.002336 | 0 | 0.7423 | 0.004448 | 0.4317 | Rate constant with Cdk2 R122C (Cdk2(R122C) (C177A)): 0.002587
C=CC(=O)NCc1ccc(F)cc1 [BN-62] | 0.679 | 0.001045 | 0.7693 | 0.001184 | 0.00167 | 1.1306E−11 | 1.74E−14 | 0.0019 | 1.86 | 0.002863 | 1.136 | 1.213 | 0.00157 | 0.001539 | 0.6901 | 0.001062 | 2.5393E−11 | 1.006 | 0.001549 | 0.125 | Rate constant with Cdk2 H71C (Cdk2(H71C) (C177A)): 3.908E−14; Rate constant with Cdk2 R122C (Cdk2(R122C) (C177A)): 0.0001923
C=CC(=O)NCc1ccc(OC)cc1 [BN-63] | 0.7193 | 0.001476 | 0.393 | 0.0008064 | 0.0033 | 0.4386 | 0.0009 | 0.00194 | 1.461 | 0.002998 | 0.5882 | 0.9011 | 0.00215 | 0.002052 | 0.5692 | 0.001168 | 3.1842E−11 | 0.5 | 0.001026 | 0 | Rate constant with Cdk2 H71C (Cdk2(H71C) (C177A)): 6.534E−14
C=CC(=O)NCc1ccc(C(=O)OC)cc1 [BN-65] | 0.8711 | 0.002061 | 1.179 | 0.002789 | 0.00398 | 0.5182 | 0.001226 | 0.00121 | 0.7866 | 0.001861 | 0.3031 | 0.4134 | 0.00292 | 0.002366 | 2.644 | 0.006255 | 0.538 | 0.9112 | 0.002156 | 0 | Rate constant with Cdk2 H71C (Cdk2(H71C) (C177A)): 0.001273
C=CC(=O)N1CCn2c(C(=O)NC3CC3)ccc2C1C (stereo not drawn) [CA-040] |  |  |  |  | 0.0302 |  |  | 0.02965 |  |  | 0.9818 | 0.8399 | 0.0353 |  |  |  |  |  |  |  | 
